From publication PMC10307885, “A Phase 1/2 trial of SRA737 (a Chk1 inhibitor) administered orally in patients with advanced cancer” (British Journal of Cancer, 2023)

Columns and labels:
[1] = test system: patients with advanced solid tumours; assay: Cardiac safety: ECG (QTcF), troponin, echocardiogram; type: in vivo, human
Protocol: Cardiac assessments included centrally-assessed serial ECGs in Cycle 1 used for evaluation of QTc. In addition, locally-read ECGs for safety assessment were also available for central assessment where clinically indicated. Troponin T or I assessments and echocardiogram were locally assessed.
Safety and response variables were summarized using descriptive statistics and PK parameters were determined using non-compartmental methods. A concentration-effect model was used to evaluate the relationship between plasma SRA737 concentrations and the mean change from baseline in QT interval corrected for heart rate using Fridericia’s formula (QTcF) in time-matched ECG measurements and PK samples collected on Day −7 to Day −4 and during Cycle 1.

[2] = Preliminary in vitro solubility studies of SRA737 citrate drug product; type: physicochemical; details: over the physiological range

## N#Cc1cnc(Nc2cc(NC[C@H]3CNCCO3)c(C(F)(F)F)cn2)cn1 [SRA737, (R)-5-((4-((morpholin-2-ylmethyl)amino)-5-(trifluoromethyl)pyridin-2-yl)amino)pyr azine-2-carbonitrile]
[1]; 800 mg QD, 2 h post dose on Cycle 1 Day 22, 90% confidence interval 11.53 to 22.13
  largest LS mean ΔQTcF: 16.8 ms
[1]; 800 mg SRA737
  cases of acute coronary syndrome (cardiac SAE): 1 case
  cases of asymptomatic myocardial infarction (cardiac SAE): 1 case
[1]; 1000 mg SRA737
  cases of asymptomatic QT prolongation (cardiac SAE): 1 case
  cases of cardiomyopathy (cardiac SAE): 1 case
[1]; all doses
  cardiac serious adverse events evaluated to be possibly related to SRA737: Four
[1]; central ECG monitoring
  subjects with treatment-emergent QTcF values >500 ms or ΔQTcF of >60 ms: no individual subjects
[1]; echocardiogram data, 83 evaluable patients, other than cardiomyopathy and myocardial infarction cases
  patients with > 10% absolute drop from baseline resulting in abnormal left ventricular ejection fraction: no additional patients
[1]; echocardiogram performed outside the study
  drop of left ventricular ejection fraction, one patient: from 65 to 20–25%
[1]; studied doses
  effects on heart rate, PR interval, or QRS duration: no clinically relevant effects
[1]; therapeutic doses
  proarrhythmic potential: no indication that SRA737 is proarrhythmic
[2]
  pH-dependent solubility: minimal to moderate pH-dependent solubility
